The text below walks through data of patent US8829014B2, “Thiazole and thiophene analogues, and their use in treating autoimmune diseases and cancers” (Board of Supervisors of Louisiana State University and …, priority 2006, dated 2014).

Read-outs that look alike come from different tables or passages of the source.

For one assay, the system named is NF-κB. Kind of assay: NF-κB inhibitor screen: basal NF-κB-dependent luciferase expression in HEK/NF-κB cell line. The following applies: for inhibition at 1 µM: determined as described in Example 398, read-out: NFkB inhibition @ 1 uM; for inhibition of basal NF-κB-dependent luciferase expression: 3.3 μM (FIG. 12). In kind it is cell-based. From the text: Development of NF-κB and AP-1 Screens: Two HEK293 cell lines were purchased from Panomics. One cell line was stably transfected with a plasmid in which luciferase expression is regulated by six copies of the NF-κB transcriptional element (5′-[…]-3′); and the other cell line was stably transfected with a plasmid in which luciferase expression is regulated by three copies of the AP-1 transcriptional element (TGACTAA). To test the biological activity of the promoters, the HEK/NF-κB cell line was stimulated with TNF-α (20 ng/ml) for 24 hours, and the HEK/AP-1 cell line was stimulated with PMA (10 ng/ml) for 24 hours. […] In addition, a pyrimidine carboxyimide that had previously been shown (ref. 58) to be an inhibitor of transcription mediated by NF-κB and AP-1 reduced luciferase activity by approximately 40% in each of the NF-κB and AP-1 cell lines.
The above two assays analyzed the effects of the compounds on post-transcriptional gene regulation, which is known to play a key role in cancer and inflammation. By contrast, the NF-κB assay and the following assay (AP-1) test whether the compounds act at the transcriptional level. Thirty-nine representative compounds were screened in an HEK/NF-κB cell line. HEK cells were stably transfected with a plasmid expressing luciferase under the control of the NF-κB promoter. These transfected cells were plated on a 96-well plate. As above, initial screening was carried out at 1.0 μM by adding compound in DMSO (0.3%) twenty-four hours after plating. Each compound was added to each of triplicate wells. DMSO (0.3%) was added to one set of wells as a control. Luciferase activity was determined using Promega's Brite-Glo kit, and the mean for each sample was normalized to that for DMSO.
The fourteen representative compounds identified in the eIF4E screen as interesting (Numbered 2, 3, 4, 6, 8, 11, 15, 20, 21, 24, 25, 32, 33, and 35) were then tested for luciferase activity in a six-point dose response (10 nM, 33 nM, 100 nM, 330 nM, 1000 nM, and 3300 nM). Screening was carried out as described above by monitoring the effects of the compounds on basal NF-κB-dependent luciferase expression. Each dose was used out in triplicate, and repeated between two and four times. Results were normalized by the average expression level at the lowest concentration level, as described above.

For a further assay, the system named is AP-1. Briefly: AP-1 inhibitor screen: basal AP-1-dependent luciferase expression in HEK/AP-1 cell line. Type of assay: cell-based. The following applies: AP1; 1 uM; determined as described in Example 398. From the text:
Development of NF-κB and AP-1 Screens: Two HEK293 cell lines were purchased from Panomics. One cell line was stably transfected with a plasmid in which luciferase expression is regulated by six copies of the NF-κB transcriptional element (5′-[…]-3′); and the other cell line was stably transfected with a plasmid in which luciferase expression is regulated by three copies of the AP-1 transcriptional element (TGACTAA). To test the biological activity of the promoters, the HEK/NF-κB cell line was stimulated with TNF-α (20 ng/ml) for 24 hours, and the HEK/AP-1 cell line was stimulated with PMA (10 ng/ml) for 24 hours.
HEK cells were stably transfected with a plasmid expressing luciferase under the control of the AP-1 promoter. The transfected cells were plated on a 96-well plate for 24 hr. Then 1.0 μM of each compound in DMSO (0.3%) was added to triplicate wells and incubated for 48 hr. DMSO (0.3%) was added to one set of triplicate wells as a control. Luciferase activity was determined using Promega's Brite-Glo kit, and the mean for each sample was normalized to that for DMSO.
Screening was carried out as described above, monitoring the compounds' effects on basal AP-1-dependent luciferase expression. Each dose-response experiment was carried out in triplicate and repeated between two and four times.

A further assay relates to carageenan-induced edema. Briefly: Carrageenan-induced rat paw edema test (anti-inflammatory activity). Type of assay: in vivo, Sprague-Dawley rats. The following applies: po, 3 h, carrageenan-induced rat paw edema, defined in Example 397, read-out: % Protection. The procedure, abridged: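 Edema was raised by sub-plantar injection of 1% carrageenan into the right hind paw, 1 h after dosing 18 h-fasted male/female Sprague-Dawley rats (150-250 g) with 50 mg/kg p.o. in 0.1% CMC. Swelling was measured by displacement 3 h later and expressed as % protection against saline control.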

Consider `Cc1ccc(-n2c(-c3sc(Nc4ccc(Cl)cc4)nc3C)nc3ccccc3c2=O)cc1` [Example 192, 2-[2-(4-Chlorophenylamino)-4-methyl-thiazol-5-yl]-3-p-tolyl-3H-quinazolin-4-one], for which the results for the inhibition at 1 µM with NF-κB and in the assay with AP-1 were 12% and 2%, respectively. The inhibition in vivo at 50 mg/kg in the assay on carageenan-induced edema (Rattus norvegicus) worked out at 37%.
The corresponding values for `CCOC(=O)Nc1nc(-c2ccccc2)c(-c2nc3ccccc3c(=O)n2-c2ccc(C)cc2)s1` [Example 193, [5-(4-Oxo-3-p-tolyl-3,4-dihydro-quinazolin-2-yl)-4-phenyl-thiazol-2-yl]-carbamic acid ethyl ester] are 2%, 11% and 31%.
Regarding `Cc1ccc(-n2c(-c3sc(Nc4ccc(Cl)cc4)nc3-c3ccccc3)nc3ccccc3c2=O)cc1` [Example 200, 2-[2-(4-Chloro-phenylamino)-4-phenyl-thiazol-5-yl]-3-p-tolyl-3H-quinazolin-4-one], the inhibition at 1 µM is -16% in the assay on NF-κB and 2% in the assay on AP-1. Further, the inhibition in vivo at 50 mg/kg with carageenan-induced edema (Rattus norvegicus) worked out at 56%.
The matching figures for `CNc1nc(-c2ccccc2)c(-c2nc3ccccc3c(=O)n2-c2ccccc2OC)s1` [Example 205, 2-(2-Methylamino-4-phenyl-thiazol-5-yl)-3-(2-methoxyphenyl)-3H-quinazolin-4-one]: 61%, 90% and 56%.
In the case of `COc1cccc(-n2c(-c3sc(Nc4ccccc4)nc3-c3ccccc3)nc3ccccc3c2=O)c1` [Example 213, 3-(3-methoxyphenyl)-2-(4-phenyl-2-phenylamino-thiazol-5-yl)-3H-quinazolin-4-one], the values for the inhibition at 1 µM in the assay with NF-κB and in the assay on AP-1 were 35% and 33%, respectively. The inhibition in vivo at 50 mg/kg in the assay on carageenan-induced edema (Rattus norvegicus) turned out to be 38%.
The matching figures for `COc1ccc(-n2c(-c3sc(Nc4ccc(Cl)cc4)nc3C)nc3ccccc3c2=O)cc1` [Example 217, 2-[2-(4-Chlorophenylamino)-4-methyl-thiazol-5-yl]-3-(4-methoxyphenyl)-3H-quinazolin-4-one]: -38%, -43% and 50%.
The matching figures for `CCOC(=O)Nc1nc(-c2ccccc2)c(-c2nc3ccccc3c(=O)n2-c2ccc(OC)cc2)s1` [Example 218, [5-(4-Oxo-3-(4-methoxyphenyl)-3,4-dihydro-quinazolin-2-yl)-4-phenyl-thiazol-2-yl]-carbamic acid ethyl ester]: 22%, 24% and 20%.
The corresponding values for `COc1ccc(-n2c(-c3sc(Nc4ccccc4)nc3-c3ccccc3)nc3ccccc3c2=O)cc1` [Example 221, 3-(4-Methoxyphenyl)-2-(4-phenyl-2-phenylamino-thiazol-5-yl)-3H-quinazolin-4-one] are 79%, 18% and 85%.
For the compound `COc1ccc(-n2c(-c3sc(NC(=O)c4ccccc4)nc3-c3ccccc3)nc3ccccc3c2=O)cc1` [Example 222, N-[5-(4-Oxo-3-(4-methoxyphenyl)-3,4-dihydro-quinazolin-2-yl)-4-phenyl-thiazole-2-yl]benzamide], the figures for the inhibition at 1 µM in the assay on NF-κB and with AP-1 were 15% and 0%, respectively. For the same compound, the inhibition in vivo at 50 mg/kg with carageenan-induced edema (Rattus norvegicus) turned out to be 24%.
The matching figures for `Cc1nc(Nc2ccc(Cl)cc2)sc1-c1nc2ccccc2c(=O)n1-c1ccccc1Cl` [Example 230, 2-[2-(4-Chlorophenylamino)-4-methyl-thiazol-5-yl]-3-(2-chloro-phenyl)-3H-quinazolin-4-one]: 60%, 21% and 58%.
Take `CCOC(=O)Nc1nc(C)c(-c2nc3ccccc3c(=O)n2-c2ccc(Cl)cc2)s1` [Example 242, (4-Methyl-5-(4-oxo-3-(4-chloro-phenyl)-3,4-dihydro-quinazolin-2-yl)-thiazol-2-yl)-carbamic acid ethyl ester]: the inhibition at 1 µM came to 53% in the assay on NF-κB and 12% in the assay on AP-1. Also, the “inhibition of basal NF-κB-dependent luciferase expression” value with NF-κB is “about 50%”. The inhibition in vivo at 50 mg/kg with carageenan-induced edema (Rattus norvegicus) stood at 65%.
Regarding `Cc1nc(Nc2ccccc2)sc1-c1nc2ccccc2c(=O)n1-c1ccc(Cl)cc1` [Example 245, 2-(4-Methyl-2-phenylamino-thiazol-5-yl)-3-(4-chloro-phenyl)-3H-quinazolin-4-one], the inhibition at 1 µM with NF-κB is 79%; in the assay on AP-1 it was 82%. Moreover, the inhibition in vivo at 50 mg/kg with carageenan-induced edema (Rattus norvegicus) was determined as 72%.
For the compound `Cc1nc(Nc2ccc(Cl)cc2)sc1-c1nc2ccccc2c(=O)n1-c1ccc(Cl)cc1` [Example 246, 2-[2-(4-Chlorophenylamino)-4-methyl-thiazol-5-yl]-3-(4-chloro-phenyl)-3H-quinazolin-4-one], in the assay with NF-κB, the inhibition at 1 µM came to 96% and the “inhibition of basal NF-κB-dependent luciferase expression” value is “about 50%”. The inhibition at 1 µM in the assay on AP-1 came out at 74%. Further, the inhibition in vivo at 50 mg/kg in the assay on carageenan-induced edema worked out at 38%.
On to `CCOC(=O)Nc1nc(-c2ccccc2)c(-c2nc3ccccc3c(=O)n2-c2ccc(Cl)cc2)s1` [Example 249, [5-(4-Oxo-3-(4-Chloro-phenyl)-3,4-dihydro-quinazolin-2-yl)-4-phenyl-thiazol-2-yl]-carbamic acid ethyl ester], for which the inhibition at 1 µM in the assay on NF-κB came to 16%; in the assay with AP-1 it was 0%. The inhibition in vivo at 50 mg/kg with carageenan-induced edema (Rattus norvegicus) stood at 81%.
For `COC(=O)Nc1nc(-c2ccccc2)c(-c2nc3ccccc3c(=O)n2-c2ccc(Cl)cc2)s1` [Example 250, [5-(4-Oxo-3-(4-Chloro-phenyl)-3,4-dihydro-quinazolin-2-yl)-4-phenyl-thiazol-2-yl]-carbamic acid methyl ester], the inhibition at 1 µM in the assay on NF-κB came out at 17%; with AP-1 it was 5%. For the same compound, in the assay on carageenan-induced edema (Rattus norvegicus), the inhibition in vivo at 50 mg/kg stood at 83%.
On to `CNc1nc(-c2ccccc2)c(-c2nc3ccccc3c(=O)n2-c2ccc(Cl)cc2)s1` [Example 251, 2-(2-Methylamino-4-phenyl-thiazol-5-yl)-3-(4-Chloro-phenyl)-3H-quinazolin-4-one], for which the inhibition at 1 µM is 85% in the assay with NF-κB and 69% with AP-1. Further, the inhibition in vivo at 50 mg/kg in the assay on carageenan-induced edema was 92%.
As to `O=c1c2ccccc2nc(-c2sc(Nc3ccccc3)nc2-c2ccccc2)n1-c1ccc(Cl)cc1` [Example 252, 3-(4-Chloro-phenyl)-2-(4-phenyl-2-phenylamino-thiazol-5-yl)-3H-quinazolin-4-one], the inhibition at 1 µM in the assay with NF-κB was 80%; with AP-1 it was 21%. Moreover, the inhibition in vivo at 50 mg/kg in the assay on carageenan-induced edema (Rattus norvegicus) is 81%.
The matching figures for `O=C(Nc1nc(-c2ccccc2)c(-c2nc3ccccc3c(=O)n2-c2ccc(Cl)cc2)s1)c1ccccc1` [Example 253, N-[5-(4-Oxo-3-(4-Chloro-phenyl)-3,4-dihydro-quinazolin-2-yl)-4-phenyl-thiazole-2-yl]benzamide]: 87%, 28% and 83%.
